How the values were obtained:
Test in all cases: normalised viability (% of control), CellTiter-Blue; higher = more viable cells (about 100 = DMSO control)
Settings in all cases: incubation time: 72 h
[1] = system: BT-474
Method in brief: (§1)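 Each value is normalised viability at a single listed concentration of the series. Breast cancer cell lines in 384-well plates were incubated 72 h with compound and read by CellTiter-Blue fluorescence at 560/590 nm, with vehicle set to 100 and a positive kill control to 0 on every plate.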

[2] = system: Hs578T
Method in brief: as §1

[3] = system: MDA-MB-453
Method in brief: as §1

[4] = system: BT-549
Method in brief: as §1

[5] = system: HCC1937
Method in brief: as §1

[6] = system: HCC1599
Method in brief: as §1

[7] = system: CAL-148
Method in brief: as §1

[8] = system: CAL-85-1
Method in brief: as §1

[9] = system: HCC1143
Method in brief: as §1

[10] = system: HDQ-P1
Method in brief: as §1

[11] = system: MFM-223
Method in brief: as §1

[12] = system: DU-4475
Method in brief: as §1

[13] = system: SK-BR-3
Method in brief: as §1

[14] = system: CAL-120
Method in brief: as §1

[15] = system: MDA-MB-231
Method in brief: as §1

[16] = system: CAL-51
Method in brief: as §1

[17] = system: MDA-MB-468
Method in brief: as §1

[18] = system: MDA-MB-436
Method in brief: as §1

Cc1ccc(NC(=O)c2ccc(CN3CCN(C)CC3)cc2)cc1Nc1nc(-c2cccnc2)cs1 [Masitinib]
normalised viability [%]
Settings	3 nM	10 nM	30 nM	100 nM	1000 nM	10000 nM
[1]	–	105	–	–	101	50.1
[2]	–	113	–	–	113	81.4
[3]	112	–	123	105	–	–
[4]	–	94.2	–	–	100	51.2
[5]	–	97.3	–	–	99.5	84.8
[6]	–	86.2	–	–	97.6	95.8
[7]	80.9	–	82.8	90.6	–	–
[8]	94.8	–	75.5	90.8	–	–
[9]	–	77.4	–	–	88.7	85.5
[10]	94	–	92.9	99.5	–	–
[11]	–	89.2	–	–	93.7	92.5
[12]	109	–	91.4	95.5	–	–
[13]	–	99.6	–	–	102	25.2
[14]	–	82.4	–	–	81.8	79.3
[15]	–	96.7	–	–	91.1	50.4
[16]	106	–	100	97.5	–	–
[17]	–	93.3	–	–	105	53.4
[18]	–	97.5	–	–	111	72.4

O=C(Nc1cccnc1)N1CCC(Cc2cccc(Oc3ccc(C(F)(F)F)cn3)c2)CC1 [PF-3845]
normalised viability [%]
Settings	3 nM	10 nM	30 nM	100 nM	1000 nM	10000 nM
[1]	–	128	–	–	111	40.5
[2]	–	116	–	–	94.3	79.1
[3]	112	–	101	101	–	–
[4]	–	93.3	–	–	86.9	48.6
[5]	–	122	–	–	108	97.2
[6]	–	95.1	–	–	114	76.6
[7]	91	–	85.3	97.9	–	–
[8]	89.6	–	89.5	87.1	–	–
[9]	–	84.3	–	–	88.5	89.5
[10]	129	–	115	113	–	–
[11]	–	91.8	–	–	95.5	74.1
[12]	90.2	–	90.7	87.6	–	–
[13]	–	111	–	–	106	116
[14]	–	99.1	–	–	105	120
[15]	–	106	–	–	115	127
[16]	109	–	98.1	103	–	–
[17]	–	106	–	–	117	62.8
[18]	–	98.1	–	–	116	101

Cc1[nH]c2ccccc2c1CCNCc1ccc(/C=C/C(=O)NO)cc1 [Panobinostat]
normalised viability [%]
Settings	0.3 nM	1 nM	3 nM	10 nM	100 nM	1000 nM
[1]	–	118	–	–	4.44	9.36
[2]	–	152	–	–	13.8	5.54
[3]	121	–	64.3	22.7	–	–
[4]	–	97.7	–	–	68.7	14.7
[5]	–	110	–	–	26.2	15.1
[6]	–	99.7	–	–	23	16.3
[7]	96.5	–	104	59.4	–	–
[8]	98	–	88.3	81.4	–	–
[9]	–	102	–	–	20.7	12.2
[10]	120	–	115	93.1	–	–
[11]	–	102	–	–	20.2	14.8
[12]	112	–	92.4	81.6	–	–
[13]	–	96.9	–	–	5.41	3.54
[14]	–	109	–	–	9.65	3.59
[15]	–	120	–	–	13.3	7.26
[16]	113	–	111	97.2	–	–
[17]	–	108	–	–	52.2	16.7
[18]	–	110	–	–	59.1	17

COCC1(CO)C(=O)C2CCN1CC2 (stereo unspecified) [Prima-1 Met]
normalised viability [%]
Settings	3 nM	10 nM	30 nM	100 nM	1000 nM	10000 nM
[1]	–	109	–	–	98.5	40.4
[2]	–	110	–	–	106	88.9
[3]	95.4	–	107	98	–	–
[4]	–	105	–	–	87.8	109
[5]	–	97.8	–	–	73.8	75.4
[6]	–	93.4	–	–	120	106
[7]	93.3	–	93	89.2	–	–
[8]	91.3	–	78.1	103	–	–
[9]	–	82.3	–	–	73.2	75.2
[10]	91.3	–	81.2	74.4	–	–
[11]	–	103	–	–	91.3	111
[12]	109	–	88.4	122	–	–
[13]	–	96.1	–	–	101	90.8
[14]	–	85	–	–	99.8	102
[15]	–	95.4	–	–	92.7	88.7
[16]	93.7	–	93.2	96.4	–	–
[17]	–	104	–	–	115	104
[18]	–	86.9	–	–	81.9	104

CNC(=O)c1cc(Oc2ccc(NC(=O)Nc3ccc(Cl)c(C(F)(F)F)c3)c(F)c2)ccn1 [Regorafenib]
normalised viability [%]
Settings	3 nM	10 nM	30 nM	100 nM	1000 nM	10000 nM
[1]	–	94.5	–	–	103	38.8
[2]	–	96.4	–	–	90.7	38.3
[3]	102	–	109	101	–	–
[4]	–	98.8	–	–	102	37.4
[5]	–	94.9	–	–	90.3	35.1
[6]	–	100	–	–	107	56.3
[7]	88	–	90.2	95.3	–	–
[8]	84.7	–	89.1	88	–	–
[9]	–	76.8	–	–	77.8	75.4
[10]	101	–	109	100	–	–
[11]	–	107	–	–	57.1	31.2
[12]	114	–	100	120	–	–
[13]	–	93.5	–	–	95.8	72.2
[14]	–	89.4	–	–	102	46
[15]	–	90.5	–	–	68.1	31.7
[16]	106	–	106	104	–	–
[17]	–	111	–	–	116	34.5
[18]	–	115	–	–	102	65.2

CO[C@H]1C[C@@H]2CC[C@@H](C)[C@@](O)(O2)C(=O)C(=O)N2CCCC[C@H]2C(=O)O[C@H]([C@H](C)C[C@@H]2CC[C@@H](OP(C)(C)=O)[C@H](OC)C2)CC(=O)[C@H](C)/C=C(\C)[C@@H](O)[C@@H](OC)C(=O)[C@H](C)C[C@H](C)/C=C/C=C/C=C/1C [Ridaforolimus]
normalised viability [%]
Settings	0.3 nM	1 nM	3 nM	10 nM	100 nM	1000 nM
[1]	–	75.5	–	–	63	61.7
[2]	–	62.9	–	–	57.2	54.3
[3]	85.4	–	30	24.5	–	–
[4]	–	62.3	–	–	62.9	56.8
[5]	–	52.4	–	–	62.5	69.5
[6]	–	105	–	–	98.7	72.5
[7]	79.9	–	43.8	36.6	–	–
[8]	68	–	57.1	59.5	–	–
[9]	–	71.5	–	–	56.1	56.8
[10]	96.2	–	90.1	74.4	–	–
[11]	–	56.3	–	–	45	43.3
[12]	100	–	61.7	57.9	–	–
[13]	–	79.8	–	–	51	42.4
[14]	–	70	–	–	50	46.9
[15]	–	86.4	–	–	81.8	70.4
[16]	90.1	–	56.2	38.6	–	–
[17]	–	66.4	–	–	59.3	60.4
[18]	–	81.3	–	–	94.5	79

c1ccc2c(CCNc3ccc(Nc4ccncc4)cc3)c[nH]c2c1 [Serdemetan]
normalised viability [%]
Settings	3 nM	10 nM	30 nM	100 nM	1000 nM	10000 nM
[1]	–	106	–	–	106	94.4
[2]	–	108	–	–	91.5	66.8
[3]	119	–	93.8	104	–	–
[4]	–	95.6	–	–	81.5	26.5
[5]	–	91.2	–	–	94.3	51.4
[6]	–	103	–	–	93.8	74.6
[7]	88.9	–	86.1	96.3	–	–
[8]	93.3	–	85.8	84.5	–	–
[9]	–	87.7	–	–	77.7	43.3
[10]	97.5	–	99.7	96.7	–	–
[11]	–	83.2	–	–	104	66.4
[12]	93.1	–	88.3	89.6	–	–
[13]	–	96.6	–	–	116	72.2
[14]	–	88	–	–	91.4	48.1
[15]	–	88.4	–	–	89.5	58.2
[16]	118	–	106	108	–	–
[17]	–	111	–	–	103	60.9
[18]	–	96.8	–	–	51.4	43.6

S=P(N1CC1)(N1CC1)N1CC1 [Thio-TEPA]
normalised viability [%]
Settings	30 nM	100 nM	300 nM	1000 nM	10000 nM	100000 nM
[1]	–	119	–	–	114	115
[2]	–	115	–	–	95.6	109
[3]	111	–	113	104	–	–
[4]	–	95.2	–	–	119	116
[5]	–	102	–	–	93.4	83.6
[6]	–	97.8	–	–	82.7	94.7
[7]	93.8	–	92.7	105	–	–
[8]	99.9	–	96.4	102	–	–
[9]	–	109	–	–	95.9	81.7
[10]	111	–	115	104	–	–
[11]	–	105	–	–	106	104
[12]	97.2	–	98.7	91.8	–	–
[13]	–	102	–	–	99.3	97.1
[14]	–	90.7	–	–	86.8	93.7
[15]	–	103	–	–	83.2	64.4
[16]	95.4	–	97.1	97.4	–	–
[17]	–	104	–	–	107	95.3
[18]	–	110	–	–	87.7	123

CN(C)CCOc1ccc(/C(=C(/CCCl)c2ccccc2)c2ccccc2)cc1 [Toremifene]
normalised viability [%]
Settings	3 nM	10 nM	30 nM	100 nM	1000 nM	10000 nM
[1]	–	132	–	–	119	92.4
[2]	–	122	–	–	109	94.6
[3]	126	–	91.4	112	–	–
[4]	–	106	–	–	113	88.1
[5]	–	129	–	–	93.1	114
[6]	–	127	–	–	97.5	89.6
[7]	94	–	97.6	108	–	–
[8]	99.2	–	92.9	95.8	–	–
[9]	–	92.5	–	–	97.3	102
[10]	108	–	109	113	–	–
[11]	–	98.1	–	–	96.1	71.8
[12]	110	–	98.6	99.4	–	–
[13]	–	113	–	–	107	91.4
[14]	–	85.2	–	–	96.1	79.1
[15]	–	95.8	–	–	101	108
[16]	107	–	98.4	110	–	–
[17]	–	104	–	–	109	17.9
[18]	–	99	–	–	96.3	71.1

Source: the supplement of paper PMC4862054
